According to paper PMC12591484 (PLOS One, 2025):

Experiments:
[1] = test system: α1β3γ2L GABAA receptors, substituted cysteine at β3M227 (β3– M1); set-up: key: +: SCAMP is Substituted Cysteine Modification and Protection and is positive when adding anesthetic to cysteine modifier significantly reduces persistent post-exposure effects due to covalent modification; -: Negative results are indicated by “–“ symbols; settings: previously reported; cited from earlier work
[2] = biological target: T1, α1S270Cβ3γ2L GABAA receptors (Homo sapiens, UniProt P14867+P18507+P28472, S297C); experiment: Drug protection from pCMBS modification (SCAMP); type: cell-based; settings: α1S270C (α+); pCMBS 1 µM x 90 s; […] etomidate, 8 µM R-mTFD-MPAB or 10 µM pTFD-di-iPr-BnOH; n = 5
T1 construct: expressed in transfected cells; host or cells: Xenopus oocytes injected with capped mRNA, 1α:1β:5γ
T1 sequence (P14867 28-456 S297C): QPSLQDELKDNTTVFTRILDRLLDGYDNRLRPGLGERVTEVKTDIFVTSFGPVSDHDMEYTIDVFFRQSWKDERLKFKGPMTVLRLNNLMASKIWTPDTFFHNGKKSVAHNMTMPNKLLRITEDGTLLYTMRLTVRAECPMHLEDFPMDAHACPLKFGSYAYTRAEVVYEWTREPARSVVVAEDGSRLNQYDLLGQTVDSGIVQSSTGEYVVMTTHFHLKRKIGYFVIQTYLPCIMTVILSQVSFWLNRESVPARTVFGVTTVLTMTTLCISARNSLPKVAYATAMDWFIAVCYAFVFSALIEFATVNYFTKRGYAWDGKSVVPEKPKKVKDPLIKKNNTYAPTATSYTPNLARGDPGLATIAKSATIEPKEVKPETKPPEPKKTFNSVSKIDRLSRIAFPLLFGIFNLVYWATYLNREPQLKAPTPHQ
T1 sequence (P28472 26-473): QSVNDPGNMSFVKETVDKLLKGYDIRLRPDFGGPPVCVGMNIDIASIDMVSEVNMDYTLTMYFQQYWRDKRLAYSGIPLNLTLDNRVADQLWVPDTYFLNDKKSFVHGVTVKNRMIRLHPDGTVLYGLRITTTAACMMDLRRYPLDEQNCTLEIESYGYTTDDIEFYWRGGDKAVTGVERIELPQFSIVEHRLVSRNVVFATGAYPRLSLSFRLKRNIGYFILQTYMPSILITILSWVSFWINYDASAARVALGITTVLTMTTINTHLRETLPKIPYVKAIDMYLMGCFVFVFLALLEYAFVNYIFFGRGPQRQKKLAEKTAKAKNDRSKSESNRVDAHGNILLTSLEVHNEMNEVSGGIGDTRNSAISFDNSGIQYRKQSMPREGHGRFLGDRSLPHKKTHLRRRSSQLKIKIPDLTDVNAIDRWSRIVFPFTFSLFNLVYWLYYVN
T1 sequence (P18507 40-475): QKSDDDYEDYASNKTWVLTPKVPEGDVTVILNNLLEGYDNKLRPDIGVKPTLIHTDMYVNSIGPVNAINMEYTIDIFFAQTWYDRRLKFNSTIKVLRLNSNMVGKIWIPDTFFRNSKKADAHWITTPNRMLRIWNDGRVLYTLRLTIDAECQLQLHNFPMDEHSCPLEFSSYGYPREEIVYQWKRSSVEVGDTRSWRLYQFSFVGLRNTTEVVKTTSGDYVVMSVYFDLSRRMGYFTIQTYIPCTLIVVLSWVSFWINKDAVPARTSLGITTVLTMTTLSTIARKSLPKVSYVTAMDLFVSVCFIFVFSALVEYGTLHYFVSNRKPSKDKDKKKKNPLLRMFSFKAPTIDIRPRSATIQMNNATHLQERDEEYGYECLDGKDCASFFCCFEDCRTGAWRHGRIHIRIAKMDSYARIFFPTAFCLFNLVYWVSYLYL
Method: (§1) Experiments were performed in ND-96 buffer at room temperature (20–22°C). Oocytes were placed in a low-volume (30µl) flow chamber and impaled with borosilicate microelectrodes filled with 3M KCl (resistance 0.5–3 MΩ) and voltage-clamped at −50 mV (model OC-725C; Warner Instruments, Hamden, CT, USA). Superfusate solutions in ND-96 were delivered at 2 ml/min from glass syringe reservoirs via computer-controlled valves (VC-8; Warner Instruments), a micro-manifold (ALA-VM8; ALA Scientific Instruments, Farmingdale, NY, USA), and PTFE tubing. Currents were digitized at 200 Hz on a computer running ClampEx v8.0 software (Molecular Devices, San Jose, CA, USA). Digitized traces were filtered with a 10-Hz low-pass Bessel function, leak corrected and analyzed for peak amplitude off-line using Clampfit v8 software (Molecular Devices).
(§2) Drug protection from pCMBS modification was assessed under pCMBS exposure conditions that produced approximately half of the maximal modification ratio for each mutant receptor, and a least a value of 3. This approach balanced the magnitude of functional modification signals (smaller with less pCMBS exposure) against the challenge of using a reversibly bound ligand to competitively block an irreversible covalent cysteine-modifying reaction. […] Each oocyte was used in a single SCAMP experiment. […] Etomidate was used as a positive control for anesthetic protection in α1M236C and β3M286C mutants and as a negative control in α1S270C, α1A291C, β3L231C, γ2S301C, γ2I242C, and γ2L246C mutants. R-mTFD-MPAB was used as a positive control in α1S270C, α1A291C, β3L231C, and γ2LS301C mutants and as a negative control in α1M236C and β3M286C mutants. For each cysteine mutant and protective drug combination, five oocytes were studied.
(§3) Non-linear least squares fits and statistical analyses were performed in Prism 10.4.0. (GraphPad Software, San Diego, CA, USA). […] Protection (steric inhibition of pCMBS modification) was inferred when anesthetics produced significant reductions in modification ratios relative to control (no anesthetic) values. The statistical significance threshold was p < 0.05.

[3] = biological target: T2, α1β3L231Cγ2L GABAA receptors (Homo sapiens, UniProt P14867+P18507+P28472, L256C); experiment: Drug protection from pCMBS modification (SCAMP); type: cell-based; settings: β3L231C (β–); pCMBS 100 µM x 30 s; […] etomidate, 8 µM R-mTFD-MPAB or 10 µM pTFD-di-iPr-BnOH; n = 5
T2 construct: expressed in transfected cells; host or cells: Xenopus oocytes injected with capped mRNA, 1α:1β:5γ
T2 sequence (P14867 28-456): as the sequence (P14867 28-456 S297C) above, with C270S counted along it
T2 sequence (P28472 26-473 L256C): as the sequence (P28472 26-473) above, with L231C counted along it
T2 sequence (P18507 40-475): as the sequence (P18507 40-475) above
Method: as §1, §2, §3

[4] = biological target: T3, α1β3M286Cγ2L GABAA receptors (Homo sapiens, UniProt P14867+P18507+P28472, M311C); experiment: Drug protection from pCMBS modification (SCAMP); type: cell-based; settings: β3M286C (β+); pCMBS 1 µM x 30 s; […] etomidate, 8 µM R-mTFD-MPAB or 10 µM pTFD-di-iPr-BnOH; n = 5
T3 construct: expressed in transfected cells; host or cells: Xenopus oocytes injected with capped mRNA, 1α:1β:5γ
T3 sequence (P14867 28-456): as the sequence (P14867 28-456 S297C) above, with C270S counted along it
T3 sequence (P28472 26-473 M311C): as the sequence (P28472 26-473) above, with M286C counted along it
T3 sequence (P18507 40-475): as the sequence (P18507 40-475) above
Method: as §1, §2, §3

[5] = biological target: T4, α1M236Cβ3γ2L GABAA receptors (Homo sapiens, UniProt P14867+P18507+P28472, M263C); experiment: Drug protection from pCMBS modification (SCAMP); type: cell-based; settings: α1M236C (α–); pCMBS 10 µM x 30 s; […] etomidate, 8 µM R-mTFD-MPAB or 10 µM pTFD-di-iPr-BnOH; n = 5
T4 construct: expressed in transfected cells; host or cells: Xenopus oocytes injected with capped mRNA, 1α:1β:5γ
T4 sequence (P14867 28-456 M263C): as the sequence (P14867 28-456 S297C) above, with M236C, C270S counted along it
T4 sequence (P28472 26-473): as the sequence (P28472 26-473) above
T4 sequence (P18507 40-475): as the sequence (P18507 40-475) above
Method: as §1, §2, §3

SMILES	SCAMP result, β3– (M1) M227 [1]	protection from pCMBS modification (significant reduction of modification ratio vs control, p < 0.05) [2]	protection from pCMBS modification (significant reduction of modification ratio vs control, p < 0.05) [3]	protection from pCMBS modification (significant reduction of modification ratio vs control, p < 0.05) [4]	protection from pCMBS modification (significant reduction of modification ratio vs control, p < 0.05) [5]
C=CCC1(c2cccc(C3(C(F)(F)F)N=N3)c2)C(=O)NC(=O)N(C)C1=O (centres unmarked) [R-mTFD-MPAB, R-5-allyl-1-methyl-5-(m-trifluoromethyl-diazirynylphenyl) barbituric acid]	+^[9]	protection was inferred	protection was also inferred	–	–
CCOC(=O)c1cncn1[C@H](C)c1ccccc1 [etomidate, R-etomidate]	–	–	–	protection was inferred	protection was inferred
